Where two headings read alike, the source gives them in different places.

Series [1] in a line: µPET/CT imaging in an AR42J tumor-bearing mouse. Type of series: in vivo, mice. To be noted: 100 pmol, n = 1. The protocol: Biodistribution studies (n = 4) and µSPECT/CT as well as µPET/CT imaging (using a MILabs VECTor^4 small-animal SPECT/PET/OI/CT device, MILabs, Utrecht, The Netherlands) at 1 and 24 h p.i. were carried out as previously published. For all ^177Lu-labeled compounds, approximately 2–3 MBq (100 pmol)—and for the ^18F-labeled analog, approximately 7 MBq (100 pmol)—were administered. For all competition studies, 2.90 mg/kg (40 nmol) of [^natLu]Lu-DOTA-MGS5 (10^−3 M in phosphate-buffered saline) were co-administered.
Moreover, the chemically identical compound, [^18F]F-[^natLu]Lu-DOTA-rhCCK-18, was evaluated via µPET/CT in a AR42J tumor-bearing mouse (n = 1), which confirmed high tumor and kidney uptake at 1 h p.i. and low overall off-target accumulation (Figure 5, right).
Figure 5 Representative µSPECT/CT images of [^177Lu]Lu-DOTA-rhCCK-18 at 1 and 24 h p.i. (left) and µPET/CT image of [^18F]F-[^natLu]Lu-DOTA-rhCCK-18 at 1 h p.i. (right) in AR42J tumor-bearing CB17- SCID mice (100 pmol each). Tumors (T) are indicated by white arrows. Kidney (K) and tumor (T) values are depicted at the bottom. TEXT PRINTED IN THE PICTURE: [^177Lu]Lu-DOTA-rhCCK-18: T: 24.1 %ID/g (1 h p.i.); K: 97.2 %ID/g (1 h p.i.); T: 25.4 %ID/g (24 h p.i.); K: 134 %ID/g (24 h p.i.) | [^18F]F-[^natLu]Lu-DOTA-rhCCK-18: T: 31.2 %ID/g (1 h p.i.); K: 146 %ID/g (1 h p.i.)

Series [2] in a line: Lipophilicity (logD7.4), n-octanol/PBS pH 7.4. Type of series: physicochemical. The protocol:
Cell-based experiments and determination of lipophilicity (logD7.4) were performed as previously published. A detailed description of the in vitro experiments is provided in the Supplementary Materials.
Cell Culture. CCK-2R-expressing rat pancreatic cancer cells AR42J (CLS GmbH, Eppelheim, Germany) were cultivated in monolayers in CELLSTAR® cell culture flasks acquired from Greiner Bio-One GmbH (Frickenhausen, Germany) at 37°C in a humidified atmosphere (5% CO2) using a HERAcell 150i-Incubator (Thermo Fisher Scientific Inc., Waltham, United States). The nutrient medium RPMI 1640 medium, supplemented with 5 mM L-Gln 5 mL non-essential amino acids (100×) and 10% FCS, was used. Furthermore, a Dulbecco’s PBS solution with 0.1% EDTA (v/v) was applied to detach the cells for cell passaging. The detached cells were counted using a Neubauer hemocytometer (Paul Marienfeld, Lauda-Königshofen, Germany). In addition, all operations under sterile conditions were accomplished using a MSC-Advantage safety workbench (Thermo Fisher Scientific Inc., Waltham, United States).
Determination of IC50. AR42J cells (2.0 × 10^5 cells/well) were seeded into 24-well plates 24 ± 2 h prior to testing using 1 mL of nutrient medium (RPMI 1640, 5 mM L-Gln, 5 mL non-essential amino acids (100×), 10% FCS). Cells were incubated at 37°C in a humidified atmosphere (5% CO2).
After the removal of the medium, each well was washed with 500 μL PBS. For the cell-based assay, 200 μL of the nutrient medium (+5% BSA), [ 177Lu]Lu-DOTA-PP-F11N (25 μL, 0.3 pmol) as a radiolabeled reference and 25 μL of the peptide of interest in increasing concentrations (10 −10 to 10−4 M) were added to the cells in triplicate. Thereafter, the assay was incubated for 3 h at 37°C and the supernatant was collected. The cells were washed with 300 μL PBS and the collected supernatant fractions were unified.
After lysis of the cells with NaOH (300 μL, 1 N) for 15 min, the respective wells were washed with NaOH (300 μ L, 1 N) and both fractions were unified. The radioactivity of both the supernatant and the lysed fractions were quantified using a γ-counter (PerkinElmer Inc., Waltham, United States). The obtained data were evaluated via the GraphPad PRISM software (GraphPad Software Inc., La Jolla, United States), which calculates the half-maximal inhibitory concentration (IC50) of the peptides.
Internalization Studies. For the determination of the internalization kinetics of the various peptides, AR42J cells (3.0 × 10^5 cells/well) were seeded into polylysine-coated 24-well plates, adding 1 mL of nutrient medium. Afterwards, the cells were incubated for 24 ± 2 h at 37°C in a humidified atmosphere […]
On the day of the experiment, the medium was removed, and each well was washed with nutrient medium (300 μL). Afterwards 200 μL of nutrient medium, 25 μL of the 177Lu-labeled peptide (0.3 pmol, n = 6) and either 25 μL of nutrient medium for internalization studies ( n = 3) or 25 μL of [natLu]Lu-DOTA-PP-F11N (10 μmol) for competition studies ( n = 3) were added. Thereafter, the assay was incubated for various time points (1, 2, 4 and 6 h) at 37°C in a humidified atmosphere (5% CO2). After incubation, the cells were put on ice for at least 1 min to stop internalization kinetics and the supernatant was collected. Then, the cells were washed with an ice-cold nutrient medium (300 μL) and both fractions were unified. […] The radioactivity of the supernatant, the acid wash and the lysed fractions were quantified using a γ-counter. […]

Series [3] is described as follows: Stability studies in human serum. Type of series: in vitro ADME. To be noted: 37 °C; for SiOH-containing analog (%): 24 h, n = 3, analog with hydrolyzed SiFA moiety; for remaining at 24 h, 5 µM: human, n = 3, read-out: Intact peptide (%). The method, then: In vitro stability studies in human serum after incubation at 37 °C for 24 h were performed as described in the Supplemental Material.
Stability Studies in Human Serum. The 177Lu- as well as 67Ga-labeled CCK-2R ligands (1 nmol,
approx. 5 MBq) were incubated for 24 h in human serum (200 μL) at 37 °C. After incubation, ice-cold
EtOH (125 μL) and MeCN (375 μL) were added and the suspension was centrifuged for 5 min at
5000 rpm. Then, the supernatant was transferred into new vials and centrifuged for another 5 min at
5000 rpm. After separating the precipitate from the solution, the stability of the ligands was determined

For `CCCC[C@H](NC(=O)[C@H](Cc1c[nH]c2ccccc12)NC(=O)CNC(=O)[C@H](Cc1ccc(O)cc1)NC(=O)[C@H](C)NC(=O)CC[C@@H](NC(=O)CC[C@@H](NC(=O)CC[C@@H](NC(=O)CC[C@@H](NC(=O)CC[C@@H](NC(=O)CC[C@@H](NC(=O)CC[C@@H](NC(=O)CC[C@@H](NC(=O)[C@@H](CNC(=O)c1ccc([Si](F)(C(C)(C)C)C(C)(C)C)cc1)NC(=O)CN1CCN(CC(=O)O)CCN(CC(=O)O)CCN(CC(=O)O)CC1)C(=O)O)C(=O)O)C(=O)O)C(=O)O)C(=O)O)C(=O)O)C(=O)O)C(=O)O)C(=O)N[C@@H](CC(=O)O)C(=O)N[C@@H](Cc1ccccc1)C(N)=O` [[^18F]F-[^natLu]Lu-DOTA-rhCCK-18, metal not drawn], the tissue uptake at 1 h in series [1] (CB17-SCID, mouse, kidney, total radioactivity, 1 h p.i., read-out: Kidney (K) value, µPET/CT) turned out to be 146 %ID/g; in series [1] (CB17-SCID, mouse, tumor, total radioactivity, 1 h p.i., read-out: Tumor (T) value, µPET/CT) it was 31.2 %ID/g; in series [1] (bone, µPET/CT mouse, read-out: bone uptake), 1.69 %ID/g.

`CCCC[C@H](NC(=O)[C@H](Cc1c[nH]c2ccccc12)NC(=O)CNC(=O)[C@H](Cc1ccc(O)cc1)NC(=O)[C@H](C)NC(=O)CC[C@@H](NC(=O)CC[C@@H](NC(=O)CC[C@@H](NC(=O)CC[C@@H](NC(=O)CC[C@@H](NC(=O)CC[C@@H](NC(=O)CC[C@@H](NC(=O)CC[C@@H](NC(=O)[C@@H](CNC(=O)c1ccc([Si](F)(C(C)(C)C)C(C)(C)C)cc1)NC(=O)CN1CCN(CC(=O)O)CCN(CC(=O)O)CCN(CC(=O)O)CC1)C(=O)O)C(=O)O)C(=O)O)C(=O)O)C(=O)O)C(=O)O)C(=O)O)C(=O)O)C(=O)N[C@@H](CC(=O)O)C(=O)N[C@@H](Cc1ccccc1)C(N)=O` [[^18F]F-[^natLu]Lu-DOTA-rhCCK-18] [metal not drawn] returned a logD7.4 in series [2] (n-octanol/PBS pH 7.4) of −2.71 ± 0.04.

As for `CCCC[C@H](NC(=O)[C@H](Cc1c[nH]c2ccccc12)NC(=O)CNC(=O)[C@H](Cc1ccc(O)cc1)NC(=O)[C@H](C)NC(=O)CC[C@@H](NC(=O)CC[C@@H](NC(=O)CC[C@@H](NC(=O)CC[C@@H](NC(=O)CC[C@@H](NC(=O)CC[C@@H](NC(=O)[C@@H](CNC(=O)c1ccc([Si](F)(C(C)(C)C)C(C)(C)C)cc1)NC(=O)CN1CCN(CC(=O)O)CCN(CC(=O)O)CCN(CC(=O)O)CC1)C(=O)O)C(=O)O)C(=O)O)C(=O)O)C(=O)O)C(=O)O)C(=O)N[C@@H](CC(=O)O)C(=O)N[C@@H](Cc1ccccc1)C(N)=O` [[^67Ga]Ga-DOTA-rhCCK-16, metal not drawn], in series [3] (listed as [67Ga]Ga-DOTA-rhCCK-16), the “SiOH-containing analog (%)” value is 56.5 ± 8.0%. Moreover, in series [3], the remaining at 24 h, 5 µM was found to be 39.6 ± 7.9%.

With `CCCC[C@H](NC(=O)[C@H](Cc1c[nH]c2ccccc12)NC(=O)CNC(=O)[C@H](Cc1ccc(O)cc1)NC(=O)[C@H](C)NC(=O)CC[C@@H](NC(=O)CC[C@@H](NC(=O)CC[C@@H](NC(=O)CC[C@@H](NC(=O)CC[C@@H](NC(=O)CC[C@@H](NC(=O)CC[C@@H](NC(=O)CC[C@@H](NC(=O)[C@@H](CNC(=O)c1ccc([Si](F)(C(C)(C)C)C(C)(C)C)cc1)NC(=O)CN1CCN(CC(=O)O)CCN(CC(=O)O)CCN(CC(=O)O)CC1)C(=O)O)C(=O)O)C(=O)O)C(=O)O)C(=O)O)C(=O)O)C(=O)O)C(=O)O)C(=O)N[C@@H](CC(=O)O)C(=O)N[C@@H](Cc1ccccc1)C(N)=O` [[^67Ga]Ga-DOTA-rhCCK-18, metal not drawn], in series [3], the “SiOH-containing analog (%)” value is reported as 53.6 ± 6.6% and the remaining at 24 h, 5 µM turned out to be 43.7 ± 6.9%.

A word on the logD: it is lipophilicity at a set pH, counting ionised and neutral species. In series [2] (pH 7.4), `CCCC[C@H](NC(=O)[C@H](Cc1c[nH]c2ccccc12)NC(=O)CNC(=O)[C@H](Cc1ccc(O)cc1)NC(=O)[C@H](C)NC(=O)[C@@H](CCC(=O)O)NC(=O)[C@@H](CCC(=O)O)NC(=O)[C@@H](CCC(=O)O)NC(=O)[C@@H](CCC(=O)O)NC(=O)[C@@H](CCC(=O)O)NC(=O)[C@@H](CCC(=O)O)NC(=O)CC[C@H](C(=O)O)N1CCN(CC(=O)O)CCN(CC(=O)O)CCN(CC(=O)O)CC1)C(=O)N[C@@H](CC(=O)O)C(=O)N[C@@H](Cc1ccccc1)C(N)=O` [[^177Lu]Lu-(R)-DOTAGA-PP-F11N, metal not drawn] had a logD of -3.95 ± 0.06.
